Where “and” joins values, the source holds several entries; their conditions need not be identical. Identical values can stand only once.
Columns and labels:
[1] = tested on: primary cultures of mouse cortical neurons; assay: NMDAR-mediated excitotoxicity, LDH cell death assay; assay type: cell-based; details: for neuroprotective effect (% protection): NMDA 200 μM 5 minutes, glycine 10 μM, LDH 24 hours after
Procedure: Studies were carried out to determine whether application of Wogonin can prevent N-methyl-D-Aspartate receptor (NMDAR)-mediated excitotoxicity in primary neuronal cultures from mouse cortex in vitro. In particular, detailed dose/response curves of Wogonin applied together with and for the duration of application of NMDA were generated. NMDAR-induced cytotoxicity can lead to fulminant cell death, necrosis, or a delayed form of cell death (apoptosis). While necrosis leads to immediate cell lysis, apoptotic cell death develops over time and is distinguished by a number of criteria such as characteristic morphological changes and DNA fragmentation. The LDH assay was used for the determination of cell death. This assay assesses primary necrosis as well as secondary, necrotic cell death subsequent to apoptosis.
For these experiments, cytotoxicity assays were conducted in primary cultures of mouse cortical neurons after 10 days in vitro using an art-recognized assay systema (Sun X, Chan L N, Gong X, Sucher N J. N-methyl-D-Aspartate receptor antagonist activity in traditional Chinese stroke medicines. NeuroSignals, 2003; 12:31-38.) Cultured neurons were exposed to NMDA (200 μM; 5 minutes) and co-agonist glycine (10 μM) in the nominal absence of magnesium and the presence of increasing concentrations of Wogonin. Measurements were performed for each dose of Wogonin in triplicate in at least three independent experiments. Wogonin was added to the culture in three different ways: 1) before, concomitant with and after NMDA, 2) concomitant with and after NMDA and 3) after NMDA. Twenty-four hours after exposure to NMDA cell death is determined by colorimetric lactate dehydrogenase (LDH) assay.

[2] = tested on: mouse formalin pain model; assay: mouse formalin pain model (paw licking); assay type: in vivo; details: for Duration of Licking: 200 mg/kg, individual animals 01-08; for Area Under the Curve, Drug Treated: 200 mg/kg i.p.
Procedure: The formalin test for antinociceptive activity is described in numerous publications, e.g., Hunskaar, S. O. B. Fasmer, and K. Hole, J. Neurosci. Methods 14: 69-76 (1985). The formalin test is a chemically-induced tonic pain model in which biphasic changes of nociceptive behavior are assessed and spinal/supraspinal plasticity of nociception is considered as a molecular basis for neuropathic pain particularly during the second (late) phase of the test, during which most clinically used drugs against neuropathic pain are active. The formalin test is accepted as an art recognized model of persistent clinical pain.
The formalin test (Wheeler-Aceto H, Porreca F, Cowan A. The rat paw formalin test: comparison of noxious agents. Pain 1990; 40:229-38) involves injection of 0.5% formalin into the mouse hind paw. The injection elicits a distinct biphasic behavioral profile in response to the formalin injection characterized by licking of the affected paw, and the number of licks is measured as a proxy for perceived pain. The first (acute) phase corresponds to the direct stimulation of peripheral fibers, while the second (inflammatory) phase is caused by the release of inflammatory mediators from the damaged tissue and nerve endings. Thus, this model is ideally suited to test the efficacy of Wogonin against the acute and chronic hyper-responsive neuronal discharges following activation of peripheral nerve fibers.
The results of the formalin test are given both as raw data (“Response”) and in an aggregate, analyzed form (“Analysis”). In the Response section, each Trial involves sixteen animals, eight controls given an i.p. injection of vehicle and eight given Wogonin at a specified dose. The data recorded for each animal is the amount of time spent licking the affected hind paw in a two-minute period. These two-minute periods occur at five-minute intervals and continue for […]. […] From this plot, the area under the cure (AUC) is determined for each animal during both the acute and inflammatory stages. The AUC for each phase is shown in the analysis section of the data sheet for both control and Wogonin-treated animals. The AUC for each Wogonin-treated animal is compared to the average result from the control group, yielding an average percent of control (reported with the SEM and p value). Significant reductions in this number indicate a reduction in licking, and, presumably, a reduction of perceived pain.
Male Swiss Webster NIH mice (20-30 g; Harlan, San Diego, Calif.) were used in the experiments described herein. Food was withdrawn on the day of experiment. Mice were placed in Plexiglass jars for at least 1 hour to accommodate to the environment. Following the accommodation period, mice were weighed and given Wogonin administered intraperitoneal (i.p.) or the appropriate volume of vehicle (10% Tween-80). Fifteen minutes after the i.p. dosing, mice were injected with formalin (20 μL of 5% formaldehyde solution in saline) into the dorsal surface of the right hind paw. Mice were transferred to the Plexiglass jars and monitored for the amount of time spent licking or biting the injected paw. Periods of licking and biting were recorded in 5 minute intervals for 40 minutes after the formalin injection. All experiments were done in a blinded manner. The early phase (acute) of the formalin response is measured as licking/biting between 0-10 minutes, and the late phase (inflammatory) is measured from 10-40 minutes. Differences between vehicle and Wogonin-treated groups are analyzed by one-way analysis of variance (ANOVA). A P value <0.05 is considered significant. Activity in blocking the acute and second phase of formalin-induced paw-licking activity is indicative that compounds are efficacious for acute and chronic pain. A significant response to both the acute and the inflammatory phases of the test was observed.

SMILES: COc1c(O)cc(O)c2c(=O)cc(-c3ccccc3)oc12 [Wogonin, 5,7-dihydroxy-8-methoxyflavone]
- neuroprotective effect (% protection) ([1]; 10^−4 M Wogonin): > 75%
- neuroprotective effect (% protection) ([1]; 10^−9 M Wogonin): 0%
- IC50 ([1]; Cortical neurone, mouse cortical neurons, LDH assay, read-out: IC50, inhibition of neuronal death on exposure to N-methyl-D-aspartate): 2 µM
- Duration of Licking ([2]; 0 mm): 0.00 sec (3×) and 35.48 sec and 21.75 sec and 53.96 sec and 44.26 sec and 32.29 sec
- Duration of Licking ([2]; 5 min): 0.00 s
- Duration of Licking ([2]; 10 min): 0.00 s
- Duration of Licking ([2]; 20 min): 0.00 sec (7×) and 16.00 sec
- Duration of Licking ([2]; 25 min): 0.00 sec (5×) and 3.89 sec and 20.61 sec and 10.96 sec
- Duration of Licking ([2]; 30 min): 0.00 sec (4×) and 29.12 sec and 55.07 sec and 2.95 sec and 37.69 sec
- Duration of Licking ([2]; 35 min): 0.00 sec (6×) and 21.24 sec and 12.73 sec
- Duration of Licking ([2]; 40 min): 0.00 sec (6×) and 20.18 sec and 27.36 sec
- Area Under the Curve, Drug Treated ([2]; Acute phase): 58.7
- Area Under the Curve, Drug Treated ([2]; Inflammatory phase): 146.3
- overt toxicity ([2]; mouse models): Overt toxicity was not seen

Reference: patent publication US20130136811A1, “Compositions and Methods for Pain Reduction” (priority 2010, published 2013)
